Reference: US20260232823A1, “AZA-BENZAZEPINE IMMUNOCONJUGATES, AND USES THEREOF” (BOLT BIOTHERAPEUTICS, INC., priority 2023, published 2026)

Key:
[1] = hydrolysis of the amidine group to lactam in PBS buffer; type: physicochemical
Description: (§1) The hydrolytic degradation rates of benzazepine and 7-azabenzazepine compounds were directly compared in PBS (pH 7.4) at 37° C. to mimic in vivo effects and in formulation buffer to simulate storage and lifetime effects. […] The half-lives (t½) of aza-benzazepine compounds azaBa-6 and azaBz-8 were 30 days and 40 days, respectively. […] The amount of lactam is normalized for each sample at the start (to) for easier rate comparisons. The 7-aza modification is stabilizing in PBS and formulation buffer by about 5-fold relative to the corresponding benzazepine compounds.

[2] = hydrolysis of the amidine group to lactam in formulation buffer; type: physicochemical; settings: formulation buffer pH 6, 22° C.; read-out: t ½ in formulation buffer (pH 6) at 22° C. (converted)
Description: A nitrogen at the 7-position is stabilizing and slows hydrolysis in aza-benzazepine compounds with a variety of substituents at the 8-position. […] The amount of lactam is normalized for each sample at the start (to) for easier rate comparisons.
as §1

[3] = target: T1, human TLR7 (Homo sapiens, UniProt Q9NYK1); assay: HEK Reporter Assay, HEK293 NFKB reporter cells expressing human TLR7; type: cell-based
T1 construct: host or cells: HEK293 NFKB reporter cells
T1 sequence (Q9NYK1 27-1049): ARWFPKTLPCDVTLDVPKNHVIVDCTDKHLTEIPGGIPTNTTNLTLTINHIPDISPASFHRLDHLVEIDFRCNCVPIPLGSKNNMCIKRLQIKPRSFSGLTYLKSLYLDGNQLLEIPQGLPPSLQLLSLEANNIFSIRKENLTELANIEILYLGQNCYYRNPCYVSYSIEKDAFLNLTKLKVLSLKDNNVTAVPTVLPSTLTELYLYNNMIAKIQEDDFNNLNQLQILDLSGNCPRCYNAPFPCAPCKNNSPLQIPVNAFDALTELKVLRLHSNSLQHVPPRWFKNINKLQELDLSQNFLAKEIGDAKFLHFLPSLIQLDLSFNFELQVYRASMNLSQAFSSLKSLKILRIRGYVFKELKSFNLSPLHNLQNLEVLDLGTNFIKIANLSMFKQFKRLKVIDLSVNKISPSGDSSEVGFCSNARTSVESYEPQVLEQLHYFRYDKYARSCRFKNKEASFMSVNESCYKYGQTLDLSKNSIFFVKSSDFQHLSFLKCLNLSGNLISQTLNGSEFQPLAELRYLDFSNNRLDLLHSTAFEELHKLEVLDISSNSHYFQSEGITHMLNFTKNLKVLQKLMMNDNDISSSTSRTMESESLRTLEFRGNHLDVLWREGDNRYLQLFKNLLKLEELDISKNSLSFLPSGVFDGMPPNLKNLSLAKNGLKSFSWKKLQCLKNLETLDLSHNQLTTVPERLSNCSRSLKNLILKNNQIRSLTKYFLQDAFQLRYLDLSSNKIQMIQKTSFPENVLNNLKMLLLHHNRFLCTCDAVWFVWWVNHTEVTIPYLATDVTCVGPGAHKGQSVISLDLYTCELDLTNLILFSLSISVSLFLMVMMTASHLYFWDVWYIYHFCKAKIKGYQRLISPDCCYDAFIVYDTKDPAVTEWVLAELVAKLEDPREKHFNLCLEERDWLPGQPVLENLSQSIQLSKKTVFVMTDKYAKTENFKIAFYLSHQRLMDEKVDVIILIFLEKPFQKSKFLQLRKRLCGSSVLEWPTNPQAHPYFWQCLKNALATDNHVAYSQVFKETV
Description: (§2) Exemplary aza-benzazepine compounds (azaBza) of Table 1a and comparator compounds (CBz) of Table 1b were synthesized, purified, and characterized by mass spectrometry and shown to have the expected mass. Additional experimental procedures are found in the Examples. Activity against HEK293 NFKB reporter cells expressing human TLR7 or human TLR8 was measured according to Example 202.
(§3) HEK293 reporter cells expressing human TLR7 or human TLR8 were purchased from Invivogen and vendor protocols were followed for cellular propagation and experimentation. Briefly, cells were grown to 80-85% confluence at 5% CO2 in DMEM supplemented with 10% FBS, Zeocin, and Blasticidin. Cells were then seeded in 96-well flat plates at 4×10^4 cells/well with substrate containing HEK detection medium and immunostimulatory molecules. Activity was measured using a plate reader at 620-655 nm wavelength.

[4] = target: T2, human TLR8 (Homo sapiens, UniProt Q9NR97); assay: HEK Reporter Assay, HEK293 NFKB reporter cells expressing human TLR8; type: cell-based; settings: read-out: EC50 against TLR8
T2 construct: host or cells: HEK293 NFKB reporter cells
T2 sequence (Q9NR97 27-1041): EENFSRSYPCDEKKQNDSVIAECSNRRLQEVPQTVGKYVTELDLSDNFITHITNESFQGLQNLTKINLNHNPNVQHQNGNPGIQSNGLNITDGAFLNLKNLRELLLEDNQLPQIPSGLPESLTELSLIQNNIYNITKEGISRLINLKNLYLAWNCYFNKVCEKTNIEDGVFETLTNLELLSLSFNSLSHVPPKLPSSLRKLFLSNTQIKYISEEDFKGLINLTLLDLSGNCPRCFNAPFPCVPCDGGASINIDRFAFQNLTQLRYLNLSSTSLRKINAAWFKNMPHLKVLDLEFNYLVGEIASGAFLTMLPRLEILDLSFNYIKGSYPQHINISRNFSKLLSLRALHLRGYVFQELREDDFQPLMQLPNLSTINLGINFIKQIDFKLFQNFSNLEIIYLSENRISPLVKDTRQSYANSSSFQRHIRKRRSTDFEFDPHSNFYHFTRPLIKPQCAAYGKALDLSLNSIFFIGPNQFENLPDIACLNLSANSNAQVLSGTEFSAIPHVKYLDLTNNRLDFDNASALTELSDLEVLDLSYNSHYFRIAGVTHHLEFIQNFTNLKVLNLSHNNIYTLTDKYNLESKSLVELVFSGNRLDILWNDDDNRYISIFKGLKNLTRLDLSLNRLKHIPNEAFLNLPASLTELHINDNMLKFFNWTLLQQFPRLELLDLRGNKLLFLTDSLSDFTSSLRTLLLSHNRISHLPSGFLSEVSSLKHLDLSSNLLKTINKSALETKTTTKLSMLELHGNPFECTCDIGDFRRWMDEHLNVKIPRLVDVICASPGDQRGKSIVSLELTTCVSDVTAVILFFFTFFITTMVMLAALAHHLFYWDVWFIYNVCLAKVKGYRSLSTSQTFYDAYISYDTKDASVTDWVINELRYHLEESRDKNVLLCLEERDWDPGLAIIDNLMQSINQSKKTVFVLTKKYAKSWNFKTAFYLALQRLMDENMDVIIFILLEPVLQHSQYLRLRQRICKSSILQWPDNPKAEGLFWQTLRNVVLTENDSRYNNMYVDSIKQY
Description: as §2, §3

[5] = test system: human TLR7 or human TLR8; assay: HEK Reporter Assay (TLR 7/8, receptor not separated); type: cell-based; settings: lactam comparator compounds
From the text: It was discovered that the amidine functional group of benzazepine adjuvant compounds, moieties conjugated to antibodies as immunoconjugates (WO 2020/252294; WO 2021/067242; WO 2022/125884; WO 2022/125891; WO 2022/125904; WO 2022/125908; WO 2022/125915), undergoes hydrolysis to the lactam functional group.
as §3

[6] = degradation of amidine to lactam in human plasma; type: in vitro ADME; settings: human plasma at room temperature after 24 hours
Description: Amidine benzazepine comparator compound CBz-3 (Table 1b) degrades in PBS buffer (pH 7.4) at 40° C. to produce lactam benzazepine comparator compound CBz-5 (Table 1b) at 90% at 17 days. […] In human plasma at room temperature after 24 hours, 15% of CBz-3 degrades to CBz-5.

[7] = PBS (pH 7.4) at 37° C., read-out: half-lives (t½), hydrolytic degradation (converted)
[8] = PBS pH 7.4, 37° C., read-out: t ½ in PBS (pH 7.4) at 37° C. (converted)

Compound: CCCN(OCC)C(=O)C1=Cc2cnc(-c3cnc(CN)nc3)cc2N=C(N)C1 [azaBz-6, 2-amino-8-(2-(aminomethyl)pyrimidin-5-yl)-N-ethoxy-N-propyl-3H-pyrido[4,3-b]azepine-4-carboxamide]
- half-life [1, 7]: 30 days
- half-life [2]: 30 days

Compound: CCCN(OCCNC(=O)OC(C)(C)C)C(=O)C1=Cc2cnc(S(=O)(=O)O)cc2N=C(N)C1 [azaBz-5]
- half-life [1, 8]: 70 days
- half-life [2]: 50 days

Compound: CCCN(CCC)C(=O)C1=Cc2ccncc2N=C(N)C1 [azaBz-2]
- response against TLR7 [3]: no response
- EC50 [4]: 5500 nM

Compound: CCCN(OCCNC(=O)NC1CCC1)C(=O)C1=Cc2ccc(-c3cnc(CN)nc3)cc2NC(=O)C1 [CBz-9]
- activity in the HEK assay (TLR 7/8 agonist) [5]: inactive

Compound: CCCN(OCCNC(=O)OC(C)(C)C)C(=O)C1=Cc2ccncc2N=C(N)C1 [azaBz-24]
- EC50 ([3]; read-out: EC50 against TLR7): 842 nM
- EC50 [4]: 196 nM

Compound: CCCN(OCC)C(=O)C1=Cc2cnc(S(=O)(=O)NCCOC)cc2N=C(N)C1 [azaBz-7]
- half-life [1, 8]: 100 days
- half-life [2]: 100 days

Compound: CCCN(OCCNC(=O)OC(C)(C)C)C(=O)C1=Cc2cnc(C(=O)O)cc2N=C(N)C1 [azaBz-3, 2-amino-4-((2-((tert-butoxycarbonyl)amino)ethoxy)(propyl)carbamoyl)-3H-pyrido[4,3-b]azepine-8-carboxylic acid]
- half-life [1, 8]: 20 days
- half-life [2]: 30 days

Compound: CCCN(OCC)C(=O)C1=Cc2ccc(-c3cnc(CN)nc3)cc2N=C(N)C1 [CBz-2, reference compound]
- half-life [1, 7]: 6 days

Compound: CCCN(OCC)C(=O)C1=Cc2ccc(C(=O)NCCOC)cc2N=C(N)C1 [CBz-7, reference compound]
- half-life [1, 7]: 8 days

Compound: CCCN(OCC)C(=O)C1=Cc2cnc(S(=O)(=O)N(C)CCOC)cc2N=C(N)C1 [azaBz-8]
- half-life [1, 7]: 40 days
- half-life [2]: 40 days

Compound: CCCN(OCC)C(=O)C1=Cc2ccc(-c3cnc(CN)nc3)cc2NC(=O)C1 [CBz-8]
- activity in the HEK assay (TLR 7/8 agonist) [5]: inactive

Compound: CCCN(OCC)C(=O)C1=Cc2ccc(-c3cnc(CNC(=O)CCOCCOCCOCCOCCOCCOCCOCCOCCOCCOCCC(=O)O)cn3)cc2N=C(N)C1 [CBz-3]
- degraded to lactam (CBz-5) [6]: 15%
